# Results as given in patent US20250032526A1, “COMPOSITION, METHOD FOR PREPARING SAME, AND USE THEREOF” (priority 2022, published 2025).
# How the values were obtained:
# [1] = Stability investigation of related substance (capsules); type: physicochemical; conditions: 0 day
# From the text: The capsules provided by the present invention were taken and separately put under the conditions shown in Table 18 to investigate the stability.
# [2] = Compatibility of raw material and auxiliary material (content measurement); type: physicochemical
# Procedure: The mixture was allowed to stand at 60° C. high temperature condition (60° C.), high humidity condition (25° C., 92.5% RH), acceleration condition (40° C.±2° C., 75% RH±5%), and light condition (4500 1×±500 1×) for 10 days and 30 days, and then taken out to detect the content and the change of the related substance.
compound,measurement,setting,value
N#C[C@@]1(c2ccc3c(N)ncnn23)O[C@H](COC(=O)C2CCCCC2)[C@@H](O)[C@H]1O [ATV014],Impurity (%) RRT 0.42,[1],0.47%
same,Impurity (%) RRT 0.49 (0.48),[1],0.19%
same,Impurity (%) RRT 1.16,[1],0.75%
same,Impurity (%) RRT 1.42 (1.38),[1],0.53%
same,Impurity (%) RRT 1.44 (1.40),[1],0.16%
same,Impurity (%) RRT 1.70 (1.65),[1],0.04%
same,Impurity (%) Total,[1],2.10%
same,"Content measurement result, 25° C./92.5% RH, open, 10 day","[2]; 25° C./92.5% RH, 10 day",100.3%
same,"Content measurement result, 60° C., open, 10 day","[2]; 60° C., 10 day",100.3%
same,"Content measurement result, 60° C., open, 30 day","[2]; 60° C., 30 day",100.5%
